US7322965B2, “Infection-resistant medical devices” (priority 2002, dated 2008)
Values after ≈ are worked out from the molar mass of the structure shown. Read-outs that look alike come from different tables or passages of the source. Marks after values point to notes of the source that are not given here.

Legend:
Type in all cases: cell-based
[1] = test system: S. epidermidis UC-20208; experiment: Determination of minimum inhibitory concentration (microdilution); settings: Staphylococcus epidermidis, UC20208, 18 h, read-out: MIC (minimum inhibitory concentration)
[2] = test system: S. epidermidis RP62A; experiment: Time course adherence assay (prophylactic and delayed treatment); settings: for inhibition at 1 µg/mL / inhibition at 2 µg/mL / inhibition at 4 µg/mL / inhibition at 8 µg/mL: Staphylococcus epidermidis, read-out: Percent inhibition of bacterial adherence relative to controls
Procedure: (§1) Drug effects on bacterial adherence were measured 18 hours after treatment initiation using a quantitative spectrophotometric assay.
(§2) Relative inhibition of adherence was expressed by the following equation: (OD of control well−OD of treated well/OD of control well)×100, where OD is the mean optical density of six replicate wells from two separate experiments (three replicates per experiment). Control was defined as infected, drug-free cultures.
(§3) The primary efficacy variable in this study was the measurement of adherent bacteria to polystyrene surfaces after 18 hours to 24 hours of growth. To determine whether statistically significant differences existed between treatments (4×MIC, 2×MIC, MIC, and ½ MIC) compared with the infected-nontreated controls, multiple comparisons according to Dunnett's test (Montgomery, Design and Analysis of Experiments (1991)) were applied for each clinical strain. Differences were considered statistically significant when p<0.05.

[3] = test system: S. epidermidis UC-20207; experiment: as above; settings: for inhibition at 1 µg/mL / inhibition at 2 µg/mL / inhibition at 4 µg/mL / inhibition at 8 µg/mL: Staphylococcus epidermidis, read-out: Percent inhibition of bacterial adherence relative to controls; for Mean OD550: UC-20207
Procedure: as §1, §2, §3

[4] = test system: S. epidermidis RP62A; experiment: Microtiter-plate adherence assay on polystyrene; settings: 18 h; for Adherence Mean OD550: S. epidermidis RP62A
Procedure: (§4) Briefly, the inoculum was established by the direct colony suspension method using the Prompt™ Inoculation System (Becton Dickinson, Sparks, Md.). The bacteria suspension, which was equal to the turbidity of a 0.5 McFarland standard, was diluted in TSB to a concentration of 1×10^6 colony forming units per ml (CFU/mL). One hundred microliters of the cell suspension was added to flat-bottom polystyrene wells (Corning Costar, Corning, N.Y.) containing 100 μl of TSB, with and without drug. The final inoculum concentration per well was approximately 5×10^5 CFU/mL. The plates were incubated at 37° C. under static conditions in air. At 18 hours (h) post-infection, the optical density of bacterial growth was measured at a wavelength of 595 nm in a microtiter plate reader (Vmax; Molecular Devices, Sunnyvale, Calif.). […] Adherent “sessile” cells then were fixed with 3.7% (v/v) formaldehyde/2% (w/v) sodium acetate and stained with 0.1% (w/v) crystal violet. Excess stain was rinsed off with deionized water and the plates were air-dried for 4 h. The optical density of bacterial adherence was determined at a wavelength of 550 nm. […] To compensate for background absorbance, optical density readings from wells treated with sterile medium, fixative and stain as described above were averaged and then subtracted from all test and control wells. Relative inhibition of adherence or growth was expressed by the following equation: (OD of control well−OD of treated well/OD of control well)×100, where OD is the mean optical density of six replicate wells from two separate experiments (three replicates per experiment). Control was defined as infected, drug-free cultures.
(§5) The primary efficacy variable in this study was the measurement of adherent bacterial cells to polystyrene after 18 h of growth. To determine whether statistically significant differences existed between treatment groups (MIC, ½ MIC, and ¼ MIC) compared with the infected-nontreated controls, the Kruskal-Wallis one-way analysis of variance (ANOVA) was applied for each clinical strain. Statistical significance was defined as p-values ≦0.05. An asterisk (*) was placed by all test values less than or equal to the specified significance level.

[5] = test system: S. epidermidis UC-20207; experiment: Microtiter-plate adherence assay on polystyrene; settings: for Adherence Mean OD550: S. epidermidis UC-20207, 18 h
Procedure: as §4, §5

[6] = 1.0 μg/ml, treatment 0 h post-infection
[7] = 2.0 μg/ml (MIC), treatment 0 h post-infection
[8] = 2.0 μg/ml (MIC), treatment 2 h post-infection
[9] = 2.0 μg/ml (MIC), treatment 4 h post-infection
[10] = 4.0 μg/ml, treatment 0 h post-infection
[11] = 4.0 μg/ml, treatment 2 h post-infection
[12] = 4.0 μg/ml, treatment 4 h post-infection
[13] = 8.0 μg/ml, treatment 0 h post-infection
[14] = 8.0 μg/ml, treatment 2 h post-infection
[15] = 8.0 μg/ml, treatment 4 h post-infection
[16] = 8.0 μg/ml, treatment 6 h post-infection
[17] = Staphylococcus epidermidis, RP62A, read-out: Adherence % Inhibition
[18] = Staphylococcus epidermidis, UC20207, 18 h, read-out: Adherence % Inhibition

CN[C@H](CC(C)C)C(=O)N[C@H]1C(=O)N[C@@H](CC(N)=O)C(=O)N[C@H]2C(=O)N[C@H]3C(=O)N[C@H](C(=O)N[C@H](C(=O)O)c4cc(O)cc(O)c4-c4cc3ccc4O)[C@H](O)c3ccc(c(Cl)c3)Oc3cc2cc(c3O[C@@H]2O[C@H](CO)[C@@H](O)[C@H](O)[C@H]2O[C@H]2C[C@](C)(N)[C@H](O)[C@H](C)O2)Oc2ccc(cc2Cl)[C@H]1O [Vancomycin] was tested, and the MIC [1] was 2 µg/mL (≈ 1.38 µM), the “Mean OD550” value [2, 6] was 0.664 ± 0.632 and the “Mean OD550” value ([2]; 1.0 μg/ml, treatment 2 h post-infection) was 1.147 ± 0.527. The “Mean OD550” value ([2]; 1.0 μg/ml, treatment 4 h post-infection) was 2.311 ± 0.318, the “Mean OD550” value ([2]; 1.0 μg/ml, treatment 6 h post-infection) was 2.202 ± 0.238 and the “Mean OD550” value [2, 7] was 0.002 ± 0.002. For the same compound, the “Mean OD550” value [2, 8] was 0.000 ± 0.001, the “Mean OD550” value [2, 9] was 1.312 ± 0.936 and the “Mean OD550” value ([2]; 2.0 μg/ml (MIC), treatment 6 h post-infection) was 2.114 ± 0.439. The “Mean OD550” value [2, 10] was 0.002 ± 0.002, the “Mean OD550” value [2, 11] was 0.000 ± 0.002 and the “Mean OD550” value [2, 12] was 0.003 ± 0.004. The “Mean OD550” value ([2]; 4.0 μg/ml, treatment 6 h post-infection) was 1.562 ± 0.573, the “Mean OD550” value [2, 13] was 0.001 ± 0.001 and the “Mean OD550” value [2, 14] was 0.000 ± 0.001. For the same compound, the “Mean OD550” value [2, 15] was 0.004 ± 0.004, the “Mean OD550” value [2, 16] was 0.025 ± 0.030 and the inhibition at 1 µg/mL ([2]; 0 h) was 69.3%. For the same compound, the inhibition at 2 µg/mL ([2]; 0 h) was 99.9%, the inhibition at 4 µg/mL ([2]; 0 h) was 99.9% and the inhibition at 8 µg/mL ([2]; 0 h) was 99.9%. The inhibition at 1 µg/mL ([2]; 2 h) was 41.4%, the inhibition at 2 µg/mL ([2]; 2 h) was 100% and the inhibition at 4 µg/mL ([2]; 2 h) was 100%. For the same compound, the inhibition at 8 µg/mL ([2]; 2 h) was 100%, the inhibition at 1 µg/mL ([2]; 4 h) was 0% and the inhibition at 2 µg/mL ([2]; 4 h) was 29.4%. For the same compound, the inhibition at 4 µg/mL ([2]; 4 h) was 99.8%, the inhibition at 8 µg/mL ([2]; 4 h) was 99.8% and the inhibition at 1 µg/mL ([2]; 6 h) was 0%. For the same compound, the inhibition at 2 µg/mL ([2]; 6 h) was 0%, the inhibition at 4 µg/mL ([2]; 6 h) was 19% and the inhibition at 8 µg/mL ([2]; 6 h) was 98.7%. For the same compound, the inhibition at 1 µg/mL ([3]; UC20207, 0 h) was 0%, the inhibition at 2 µg/mL ([3]; UC20207, 0 h) was 99.8% and the inhibition at 4 µg/mL ([3]; UC20207, 0 h) was 99.9%. The inhibition at 8 µg/mL ([3]; UC20207, 0 h) was 99.9%, the inhibition at 1 µg/mL ([3]; UC20207, 2 h) was 0% and the inhibition at 2 µg/mL ([3]; UC20207, 2 h) was 99.4%. It also gave an inhibition at 4 µg/mL ([3]; UC20207, 2 h) of 99.8%, an inhibition at 8 µg/mL ([3]; UC20207, 2 h) of 99.7% and an inhibition at 1 µg/mL ([3]; UC20207, 4 h) of 0%. The inhibition at 2 µg/mL ([3]; UC20207, 4 h) was 3.6%, the inhibition at 4 µg/mL ([3]; UC20207, 4 h) was 98.8% and the inhibition at 8 µg/mL ([3]; UC20207, 4 h) was 99%. It also gave an inhibition at 1 µg/mL ([3]; UC20207, 6 h) of 0%, an inhibition at 2 µg/mL ([3]; UC20207, 6 h) of 0% and an inhibition at 4 µg/mL ([3]; UC20207, 6 h) of 0%. The inhibition at 8 µg/mL ([3]; UC20207, 6 h) was 88.5%, the “Mean OD550” value [3, 6] was 2.389 ± 0.175 and the “Mean OD550” value [3, 7] was 0.005 ± 0.004. For the same compound, the “Mean OD550” value [3, 8] was 0.014 ± 0.010, the “Mean OD550” value [3, 9] was 2.693 ± 0.527 and the “Mean OD550” value [3, 10] was 0.003 ± 0.002. For the same compound, the “Mean OD550” value [3, 11] was 0.006 ± 0.003, the “Mean OD550” value [3, 12] was 0.033 ± 0.010 and the “Mean OD550” value [3, 13] was 0.003 ± 0.002. The “Mean OD550” value [3, 14] was 0.007 ± 0.003, the “Mean OD550” value [3, 15] was 0.028 ± 0.014 and the “Mean OD550” value [3, 16] was 0.326 ± 0.046. The “Adherence Mean OD550” value ([4]; drug 1.0 μg/ml) was 1.728 ± 0.952, the “Adherence Mean OD550” value ([4]; drug 2.0 μg/ml (MIC)) was 0.000 ± 0.002* and the inhibition at 0.5 µg/mL [4, 17] was 0%. For the same compound, the inhibition at 1 µg/mL [4, 17] was 36.6%, the inhibition at 2 µg/mL [4, 17] was 100% and the “Adherence Mean OD550” value ([5]; drug 0.5 μg/ml) was 2.177 ± 0.424. The “Adherence Mean OD550” value ([5]; drug 2.0 μg/ml (MIC)) was 0.001 ± 0.002*, the inhibition at 0.5 µg/mL [5, 18] was 0% and the inhibition at 1 µg/mL [5, 18] was 0%. For the same compound, the inhibition at 2 µg/mL [5, 18] was 100%.
